{"source": "patent US6767708B1", "about": "“Stabilized aqueous steroid immunoassay standards” (Abbott Laboratories, priority 1994, dated 2004)", "test": "Stability of progesterone in charcoal stripped human serum stressed at 37° C. (percent loss by IMx Progesterone immunoassay)", "type": "physicochemical", "settings": "for Reduction in % loss of progesterone over time by addition of chelator compared to no added reagent: days 0, 3, 8, 15 and 29, FIG. 1; for Percent loss of progesterone: 5 ng/mL progesterone in charcoal stripped human serum, after 29 days, relative to frozen aliquot", "procedure": "Fifteen microliters (15 μL) of a serum sample were mixed with 80 μL of progesterone sample buffer, 80 μL of an anti-progesterone antibody coated microparticle suspension and 75 μL of IMx® Buffer. The reaction mixture was incubated for 20.8 minutes at 37° C. Progesterone sample buffer was an aqueous pH 2.8 solution of 2.25 M glycine, 0.5 μg/mL of 5-∝-dihydrotestosterone, 0.2% (w/v) saponin, 0.1 M sodium chloride and 0.1% methyl isothiazolinone (available from Rohm and Haas, Philadelphia, Pa.). The anti-progesterone antibody (available from University of Surry, Australia) coated microparticle suspension contained 0.001% solids (microparticles available from Seradyne, Indianapolis, Ind.) suspended in a buffer that was a pH 6.5 aqueous solution of 0.5 M morpholinoethanesulphonic acid (MES), 0.1 M sodium chloride, 10% sucrose, 2% bovine serum albumin (available from Intergen, Hawthorne, N.Y.), 0.1 mg/mL sheep IgG (50% ammonium sulfate cut of sheep serum obtained from Irvine Scientific, Santa Ana, Calif.) and 0.2% sodium azide.\nOne hundred seventy five microliters (175 μL) of the reaction mixture were transferred to the fiber matrix of an IMx® disposable cartridge. The microparticles were then washed with IMx® Buffer. Sixty microliters (60 μL) of 17-hydroxyprogesterone-3-(O-carboxymethyl)oxime alkaline phosphatase conjugate solution were added to the matrix, the reaction was incubated for 8 seconds at 37° C., and then washed again with IMx® Buffer. The conjugate solution contained 17-hydroxyprogesterone (available from Steraloids, Wilton, N.H.) coupled to alkaline phosphatase (available from Boehringer Mannheim, Germany) by means of the EDAC coupling procedure as described in U.S. Pat. No. 5,342,760. The conjugate solution was a pH 7.4 aqueous solution of 50 mM tris, 100 mM sodium chloride, 10 mM magnesium chloride, 0.1 mM zinc chloride, 0.5% casein (available from Sigma Chemical, St. Louis, Mo.) and 0.1% sodium azide containing sufficient conjugate to give a certain signal strength when utilized in an assay of sample free of analyte.\nThe addition of 4-methylumbelliferone phosphate and quantification of the rate of 4 methylumbelliferone formation was as described in Example 1. Using calibrators containing 0, 1, 4, 10, 20, and 40ng/mL of progesterone a standard curve was constructed.\nTest samples were incubated at 37° C. and observed over a period of days or weeks.\nCharcoal stripped human serum as prepared in Example 3 (non-alkaline shocked) (10 mL) was aliquoted into glass scintillation vials and various metal chelators were added to the following final concentrations:\nSamples were incubated on a rocker for 12 min. at room temperature and then spiked to 5 ng/mL with 10 μg/mL progesterone (available from Sigma Chemical, Saint Louis, Mo.) prepared in an ethanol stock solution. Samples were assayed for baseline concentrations of progesterone following an 8 min. incubation on a rocker at room temperature. Four 1.0 mL aliquots of each composition were placed in TDx® microcentrifuge tubes (available from Abbott Laboratories, Abbott Park, Ill.) and stored frozen −20° C. The scintillation vials were incubated at 37° C. On the days indicated, aliquots were thawed and tested with the corresponding aliquots drawn from the vials stored at 37° C. to assess percent loss.\nPercent loss (% loss) is an absolute determination of the loss of progesterone in the stressed sample relative to the frozen aliquot. […]"}
{"smiles": "O=C(O)CN(CCN(CC(=O)O)CC(=O)O)CCN(CC(=O)O)CC(=O)O", "note": "[DETP, diethylenetriaminepentaacetic acid]", "values": [{"measurement": "Reduction in % loss of progesterone (ranking of chelators)", "setting": "10 mM DETP, charcoal stripped human serum", "result": "most effective"}, {"measurement": "Reduction in % loss of progesterone over time by addition of chelator compared to no added reagent", "setting": "charcoal stripped human serum", "result": "reduction in % loss"}]}
{"smiles": "CC(=O)[C@H]1CC[C@H]2[C@@H]3CCC4=CC(=O)CC[C@]4(C)[C@H]3CC[C@]12C", "note": "[progesterone]", "values": [{"measurement": "Percent loss of progesterone", "setting": "10 mM DETP", "result": "eliminated"}, {"measurement": "Percent loss of progesterone", "setting": "no reagent added", "result": "~80", "unit": "%"}]}
{"smiles": "O=C(O)CN(CCN(CC(=O)O)CC(=O)O)CC(=O)O", "note": "[EDTA, ethylenediaminetetraacetic acid]", "values": [{"measurement": "Reduction in % loss of progesterone over time by addition of chelator compared to no added reagent", "setting": "charcoal stripped human serum", "result": "reduction in % loss"}]}
